How the values were obtained:
perfused porcine liver [1] = experiment: Midazolam continuous portal administration to ex vivo perfused porcine liver, metabolite quantified by UPLC/MS
perfused porcine liver [2] = experiment: Atorvastatin normothermic machine perfusion of ex vivo porcine liver, perfusate and bile analysed by LC/MS; type: in vitro ADME, Sus scrofa domesticus; conditions: for % billiary clearance (metabolite abundance as percentage of given Atorvastatin dose): 0-120 min, Atorva alone, 0.104 mg atorvastatin to portal vein, bile, n = 1
Procedure: Porcine Livers. Livers were obtained from a local slaughterhouse (Sus scrofa domesticus, approximately at the age of 6 months, with body weight between 100 and 120 kg). Pigs were sacrificed by a standardized procedure of electrocution followed by exsanguination. Thereafter, 3 L of blood was collected in a container supplemented with 25,000 IU of heparin. All abdominal organs were dissected outside the animal and collected. Within 20 minutes after termination, the vena porta was cannulated and directly flushed by gravity with 3 L of NaCl 0.9% (Baxter BV, Utrecht, The Netherlands) supplemented with 5000 IU of heparin followed by 2 L of ice-cold histidine-tryptophan-ketoglutarate solution (Plegistore, Warszawa, Poland). In the meantime, the arteria hepatica was dissected, cannulated, and subsequently flushed with histidine-tryptophan-ketoglutarate. At the laboratory, side branches were ligated, and the common bile duct was cannulated, whereas the ductus cysticus, derived from the gall bladder, was ligated. Normothermic Machine Perfusion. The porcine livers were perfused using the LiverAssist device (XVIVO, Groningen, The Netherlands). The machine consists of two rotary pumps that provide a pulsatile flow to the hepatic artery and a continuous flow to the portal vein. The system was filled with 2 L perfusion fluid containing red blood cells and perfusate (Table 2). […] Additionally, amino acids and vitamins were continuously provided to keep the liver metabolically active. Gas delivery to the LiverAssist consisted of 95% oxygen and 5% carbon dioxide at 2 L/min, and the temperature was set at 39 C (body temperature pigs). […] Arterial blood gas samples were taken hourly to monitor liver viability (PH, glucose, Na, K, lactate, etc.) using the i-STAT clinical analyzer (Abbot Point of Care Inc., Princeton, NJ). […] Time of starting the slow bolus was set at t=0 min. […] Drug concentrations in perfusate, bile and liver biopsies were determined by LC-MS/MS analysis as described below. […] Briefly, 20 μL of sample was extracted by adding 100 μL of acetonitrile containing internal standard. […] Samples were then mixed with 50 μL of water, vortexed and injected in to LC/MS for quantification. The mass spectrometer (AB Sciex API 5500) was operated in electrospray positive ion mode with the capillary voltage of 5.5 kV and Spray temperature of 550° C. The multiple reaction monitoring transitions used for all the compounds are shown table 4.

[3] = 240 min of perfusion, input of 49.8 mg midazolam
[4] = from 40 mg midazolam (as summarised in description)

SMILES: O=C(O)[C@H]1O[C@@H](OCc2ncc3n2-c2ccc(Cl)cc2C(c2ccccc2F)=NC3)[C@H](O)[C@@H](O)[C@@H]1O [1-OH midazolam glucuronide, midazolam 1′O-glucuronide]
- presence in perfusate (chromatogram) (perfused porcine liver [1]; 240 min after starting the portal administration of midazolam): (abundant) presence
- Yield 1-OH midazolam glucuronide, Bile (perfused porcine liver [1]; [3]): 0.254 mg
- Yield 1-OH midazolam glucuronide, Perfusate (perfused porcine liver [1]; [3]): 1.19 mg
- Yield 1-OH midazolam glucuronide, Tissue (perfused porcine liver [1]; [3]): 1.891 mg
- Yield 1-OH midazolam glucuronide, Total (perfused porcine liver [1]; 240 min of perfusion, input of 49.8 mg midazolam, sum of perfusate, bile, tissue): 3.33 mg 1-OH midazolam glucuronide
- metabolite obtained from liver tissue (perfused porcine liver [1]; [4]): 2 mg
- metabolite obtained from plasma and bile (perfused porcine liver [1]; [4]): 1.5 mg
- total metabolite produced (perfused porcine liver [1]; [4]): 3.5 mg

SMILES: CC(C)c1c(C(=O)Nc2ccccc2O)c(-c2ccccc2)c(-c2ccc(F)cc2)n1CCC1CC(O)CC(=O)O1 (stereo not drawn) [2-hydroxy atorva lactone, 2-hydroxy atorvastatin lactone]
- % billiary clearance (metabolite abundance as percentage of given Atorvastatin dose) (perfused porcine liver [2]): 3.48%

SMILES: CC(C)c1c(C(=O)Nc2ccccc2O)c(-c2ccccc2)c(-c2ccc(F)cc2)n1CCC(O)CC(O)CC(=O)O (stereo not drawn) [2-hydroxy atorva, 2-hydroxy atorvastatin]
- % billiary clearance (metabolite abundance as percentage of given Atorvastatin dose) (perfused porcine liver [2]): 5.33%

SMILES: CC(C)c1c(C(=O)Nc2ccc(O)cc2)c(-c2ccccc2)c(-c2ccc(F)cc2)n1CCC1CC(O)CC(=O)O1 (stereo not drawn) [4-hydroxy atorva lactone, 4-hydroxy atorvastatin lactone]
- % billiary clearance (metabolite abundance as percentage of given Atorvastatin dose) (perfused porcine liver [2]): 0.400%

SMILES: CC(C)c1c(C(=O)Nc2ccc(O)cc2)c(-c2ccccc2)c(-c2ccc(F)cc2)n1CC[C@@H](O)C[C@@H](O)CC(=O)O [4-hydroxy atorva, 4-hydroxy atorvastatin]
- % billiary clearance (metabolite abundance as percentage of given Atorvastatin dose) (perfused porcine liver [2]): 10.28%

SMILES: CC(C)c1c(C(=O)Nc2ccccc2)c(-c2ccccc2)c(-c2ccc(F)cc2)n1CC[C@@H]1C[C@@H](O)CC(=O)O1 [Atorvastatin lactone]
- % billiary clearance (metabolite abundance as percentage of given Atorvastatin dose) (perfused porcine liver [2]): 9.17%

SMILES: CC(C)c1c(C(=O)Nc2ccccc2)c(-c2ccccc2)c(-c2ccc(F)cc2)n1CC[C@@H](O)C[C@@H](O)CC(=O)O [atorvastatin, Atorvastatin, reference compound]
- time until atorvastatin was detected in the bile (perfused porcine liver [2]; after the start of the bolus administration, slow bolus of 0.104 mg over 10 minutes to portal vein): ≤ 10 min
- parent compound secreted into the bile (perfused porcine liver [2]; within 120 min of perfusion, 0.104 mg to portal vein): 13.0±5.6%

— patent US20250051825A1, “Ex Vivo Production of Compounds of Interest” (Nederlandse Organisatie voor …, priority 2021, published 2025)
